The values below are quoted from earlier work in patent EP0656010B1, “Use of peptides causing a immune response for the preparation of medicaments to induce the suppression of the immune reaction” (priority 1992, dated 2001).

This data set deals with sujets infectés par les VIH-1. As to conditions: subjects infected with HIV-1.

On to GGEFFYCNSTQL, for which the “réponse immunitaire cellulaire dirigée contre le peptide” value is “réponse immunitaire cellulaire”.

With SVEINCTRPNNNTRKSI, the “réponse immunitaire cellulaire dirigée contre le peptide” value is recorded as “réponse immunitaire cellulaire”.
